For data set [1], the system named is C. neoformans. As to the kind of experiment: Growth inhibition assay (Bioscreen C, 2-fold dilution series, plating for fungicidal vs fungistatic) in C. neoformans. Type of data set: cell-based, Cryptococcus neoformans H99. The note with it: for antifungal activity (in words): dose-response; for fungicidal activity, lowest concentration: plated after 72 h, 24 h recovery at 30° on Sabouraud agar. The method, then: Primary screen and dose-response of selected candidates. To identify antifungal candidates in the MMV Malaria Box, the inventors initially casted the widest possible net. Growth inhibition assays were done using the Bioscreen C™ with constant agitation, in rich media and physiological relevant temperature of 37° to test the 400 antimalarial compounds against C. neoformans. […] To examine whether or not each dose was fungicidal or just fungistatic, the inventors plated a sample of each dilution after 72 hours. They were allowed to grow at the optimal growth temperature of 30° for 24 hours on Sabouraud rich agar plates and colonies were examined for growth. […]
(§1) Strains. H99 (Serotype A) is a well-characterized wild type laboratory reference strain of Cryptococcus neoformans (22). H99 was selected because it is a virulent strain widely by the field. Cryptococcus gattii strain R265 is used as the primary reference strain to which the genome is based (ATCC MYA-4093). This strain was isolated from the Vancouver Island (British Columbia, Canada) outbreak of 2004 (23, 24). H99 and R265 were maintained in Sabouraud (Sab) dextrose broth at 30° C. with constant 200 RPM agitation. One day prior to each experimental drug treatment, Sab broth was inoculated from glycerol stock and grown overnight to log phase before washing with PBS and resuspending in fresh Sab broth prior to treatment.
(§2) Compound library. 400 compounds were made available by the Medicines for Malaria Venture (Geneva, Switzerland) in the form of the open-access MMV Malaria Box. Compounds were stored at −80° C. in 100% DMSO at a concentration of 10 mM. Before usage, compounds were thawed at room temperature and thoroughly mixed. Compounds were diluted in 2-fold series 10 mM down to […] with DMSO before subsequent growth inhibition assays. Growth inhibition assays. The effectiveness of these MMV Malaria Box compounds against C. neoformans was measured by turbidity over time. The Bioscreen C™ (Growth Curves USA, Piscataway, N.J.) allows us to analyze ˜60 compounds at a time in triplicate with constant temperature and agitation. Assays were measured at 420-580 nm, wideband range every 15′ for 72 h at 37° C. to simulate physiologically relevant temperatures. Wideband is generally used for turbidity measurements, as it is mostly insensitive to changes in color. […] We inoculated 5×10^3 H99 C. neoformans and SC5314 C. albicans in 200 μl of Sabouraud dextrose broth in each of the honeycomb (HC-2) plate's 100 wells. A two-fold dilution series of each compound from 50 μM down to 0.39 μM final concentration were tested for effects against C. neoformans. To qualitatively differentiate fungistatic and fungicidal activity, 5 μl of each well after 72 h were spotted on Sabouraud dextrose agar rich media plates and allowed to grow at the optimal temperature 30° C. to induce a full recovery of viable yeast. Spots were noted after 24 h to identify fungicidal versus fungistatic concentrations of each compound. […] Mammalian cell viability and toxicity assays.

The test system of another data set is human fibroblast. As to the kind of experiment: Toxicity against human fibroblast. It counts as cell-based. The source says: XlogP values are derived from PubChem and describe the lipophilicity of the molecule. The topological polar surface area (tPSA) is a metric for predicting cell penetration, with values <140 to be favorable. […] Toxicity against human fibroblast was used to calculate the therapeutic index TI.

In data set [2] the test system is murine bone marrow derived macrophages (BMDM). Briefly: Mammalian cell viability, MTT assay in BMDM. It counts as cell-based. A general note: Tetrazolium dyes change colour on reduction, which living cells bring about.
A further data set deals with L. prolificans. As to the kind of experiment: Growth inhibition assay, 2-fold dilution series, in L. prolificans. Type of data set: cell-based, Lomentospora prolificans. The note with it: for MIC: Lomentospora prolificans, after 72 h.
The subject of data set [3] is murine bone marrow derived macrophages (BMDM). As to the kind of experiment: Mammalian cell lysis, LDH release assay in BMDM. Type of data set: cell-based. In general terms: Release of lactate dehydrogenase indicates damage to the cell membrane.
A further data set relates to C. albicans. As to the kind of experiment: Growth inhibition assay, 2-fold dilution series, in C. albicans. It counts as cell-based, Candida albicans SC5314. The note with it: for MIC: Candida albicans, after 72 h. The method, then: as §2
The subject of data set [4] is C. neoformans. As to the kind of experiment: Imaging flow cytometry (Amnis ImageStream) of DM262 treated C. neoformans. It counts as cell-based, Cryptococcus neoformans.
The subject of a further data set is C. gattii. Briefly: Growth inhibition assay, 2-fold dilution series, in C. gattii. It counts as cell-based, Cryptococcus gattii R265. Particulars: for MIC: Cryptococcus gattii, after 72 h. The method, then: as §1, §2
Setting [5] is: 72 h drug exposure in liquid culture, then recovery on agar plates overnight.
Setting [6] is: Cryptococcus neoformans, C. neoformans, after 72 h, read-out: MIC.
Where [7] appears, read: highest concentration studied 50 μM.

The structures appear in SMILES notation. Values after ≈ are worked out from the molar mass of the structure shown. “Also recorded” adds a separate entry of the source. Like-named read-outs stand apart in the source and are kept apart here.

The MIC is the lowest concentration found to suppress growth. In the case of `Cc1ccc2cc3c(N)c4c(C)ccc(C)c4nc3nc2c1` [Compound 253], in the data set with C. neoformans [1] (setting [5]), the minimum inhibitory concentration (MIC) is 7.2 µg/mL. The “antifungal activity (in words)” value in the data set on C. neoformans [1] (C. neoformans) is “low activity”. This compound returned a Toxicity human fibroblast in the data set on human fibroblast of 11.4 µM.
In the data set with C. neoformans [1] (setting [5]), `O=C(Nc1cccc(C(F)(F)F)c1)c1cc(Cl)ccc1O` [Compound 155] yielded an MIC of 0.5 µg/mL. In addition, in the data set with C. neoformans [1] (C. neoformans), the “fold more effective than fluconazole (fungicidal activity)” value was determined as 8 fold and the “fungicidal activity, lowest concentration” value was 3.12 µM. For the same compound, the Toxicity human fibroblast in the data set on human fibroblast turned out to be 0.024 µM.
On to `Nc1ccc(-c2nc3ccc(Cc4ccc5nc(C6CCC(N)CC6)[nH]c5c4)cc3[nH]2)cc1` (centres unmarked) [DM262], for which the MIC in the data set with C. neoformans [1] (setting [5]) was 0.3 µg/mL; with C. neoformans [1] (setting [6]) it was 0.8 µM; with L. prolificans it was 6.3 µM (≈ 2.75 µg/mL); in the data set on C. albicans it was 0.8 µM (≈ 0.349 µg/mL); with C. gattii it was 50 µM (≈ 21.8 µg/mL). For the same compound, in the data set on C. neoformans [1] (C. neoformans), the “fold more effective than fluconazole (fungicidal activity)” value is 16 fold. In the data set with C. neoformans [1] (C. neoformans), the “fold more effective than fluconazole (fungistatic activity)” value was 32 fold. Moreover, in the data set on C. neoformans [1] (C. neoformans, 72 h), the “fungistatic activity, lowest concentration” value is 0.8 µM. For the same compound, in the data set with C. neoformans [1] (C. neoformans), the “fungicidal activity, lowest concentration” value came out at 1.56 µM. The “concentration with minimal variance from DMSO vehicle control” value is recorded as “up to 12.5 μM” in data set [2] (BMDM) and “up to 12.5 μM” in data set [3] (BMDM, LDH). In addition, the LD50 worked out at 50 µM in data set [2] (BMDM viability) and 50 µM in data set [3] (BMDM cell lysis, LDH release). This compound also showed a Toxicity human fibroblast in the data set with human fibroblast of 11.4 µM. Besides, the “concentration at which cells were dramatically trending towards apoptosis (apoptotic index, IDEAS 6.2)” value in the data set with C. neoformans [4] (24 h treatment, morphology of the nucleus) was determined as 6.25 µM. In the data set on C. neoformans [4] (brightfield, ImageStream), the “effect on average size of the cells” value is listed as “No significant change; also recorded: no effect”. Besides, the “concentration giving significant delay in growth” value in the data set with C. gattii is ≥ 12.5 µM. For the same compound, the “time until log phase is reached” value in the data set with C. gattii (12.5 μM treatment, growth curves) is recorded as “approximately 48 h”.
As for `OC(Cn1cncn1)(Cn1cncn1)c1ccc(F)cc1F` [Fluconazole], the minimum inhibitory concentration (MIC) against C. neoformans [1] (setting [5]) was 7.6 µg/mL; in the data set on C. neoformans [1] (setting [6]), 25 µM; with L. prolificans, > 50 µM; against C. albicans, > 50 µM; against C. gattii it was 50 µM (≈ 15.3 µg/mL). The fungicidal concentration with L. prolificans (setting [7]) and in the data set with C. albicans (setting [7]) was > 50 µM in each case. Also, the “response in growth inhibition assay (in words)” value in the data set with L. prolificans (up to the highest concentration tested, 50 μM) is on record as “complete resistance”. The “effect on final OD420-580 (in words)” value in the data set on C. albicans is given as “only slight decrease”. The “concentration at which growth was unaffected” value with C. gattii was ≤ 6.3 µM.
The compound `Cc1ccc(Nc2nc(-c3ccccn3)cs2)cc1` [Compound 64] displayed an MIC in the data set on C. neoformans [1] (setting [5]) of 1.6 µg/mL. Also, the “antifungal activity (in words)” value in the data set with C. neoformans [1] (C. neoformans) is reported as “low activity”.
In the data set on C. neoformans [1] (setting [5]), `Cc1ccc2c(c1)c1cc(C)ccc1n2CC(O)CNC1CCCCC1` (centres unmarked) [Compound 380] displayed an MIC of 0.9 µg/mL. Moreover, in the data set with C. neoformans [1] (C. neoformans), the “fold more effective than fluconazole (fungicidal activity)” value came out at 8 fold and the “fungicidal activity, lowest concentration” value is 3.12 µM. The same compound yielded a Toxicity human fibroblast in the data set on human fibroblast of 4.03 µM.

These data come from patent US11246857B2, “Anti-fungal inhibitors” (THE JOHNS HOPKINS UNIVERSITY, priority 2017, dated 2022).
